The values below come from US11998539B2, “Substituted aminoquinolones as DGKalpha inhibitors for immune activation” (Bayer Aktiengesellschaft, priority 2019, dated 2024).

Chain of DGKα (P23743 other isoform, or with tags, fused parts or gaps): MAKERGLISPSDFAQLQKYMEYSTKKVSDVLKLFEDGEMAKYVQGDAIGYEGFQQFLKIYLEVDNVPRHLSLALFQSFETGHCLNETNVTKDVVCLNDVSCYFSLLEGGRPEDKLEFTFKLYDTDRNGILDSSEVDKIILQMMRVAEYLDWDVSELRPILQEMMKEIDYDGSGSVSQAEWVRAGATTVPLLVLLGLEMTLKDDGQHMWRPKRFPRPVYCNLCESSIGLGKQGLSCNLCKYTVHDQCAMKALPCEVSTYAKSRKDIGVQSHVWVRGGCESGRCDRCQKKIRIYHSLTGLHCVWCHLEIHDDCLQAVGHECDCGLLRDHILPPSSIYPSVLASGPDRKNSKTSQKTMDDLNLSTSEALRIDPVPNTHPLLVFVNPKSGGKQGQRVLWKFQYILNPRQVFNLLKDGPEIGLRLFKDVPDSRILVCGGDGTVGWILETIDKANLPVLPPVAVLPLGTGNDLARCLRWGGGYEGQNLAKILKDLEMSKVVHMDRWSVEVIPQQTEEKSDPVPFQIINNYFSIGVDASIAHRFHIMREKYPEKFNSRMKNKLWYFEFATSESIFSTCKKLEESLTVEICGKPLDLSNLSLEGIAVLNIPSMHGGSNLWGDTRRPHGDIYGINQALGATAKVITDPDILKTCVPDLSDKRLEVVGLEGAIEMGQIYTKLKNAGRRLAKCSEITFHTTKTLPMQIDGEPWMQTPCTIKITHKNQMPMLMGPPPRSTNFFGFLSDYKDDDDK

The assay has as its target DGKα (Homo sapiens (Human), UniProt P23743). The experiment in a line: Human DGKα kinase activity inhibition assay (ADP-Glo). Type of assay: biochemical. Conditions: recombinant full-length human DGKα, 55 μM ATP, 7 μM 1,2-dioleoyl-sn-glycerol, read-out: IC50 values of examples in in vitro human DGKa kinase activity inhibition assays. The essentials:
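Recombinant full-length human DGKα (C-terminal FLAG, from insect cells) phosphorylated 1,2-dioleoyl-sn-glycerol presented in octyl-glucopyranoside micelles. ADP formed was quantified by ADP-Glo luminescence. Compounds were added from 100-fold DMSO stocks.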
`Cc1ccc2oc(C3CCN(c4c(C#N)c(=O)n(C)c5cc(O)ccc45)CC3)nc2c1` [Example 293, 7-hydroxy-1-methyl-4-[4-(5-methyl-1,3-benzoxazol-2-yl)piperidin-1-yl]-2-oxo-1,2-dihydroquinoline-3-carbonitrile]: the concentration for half-maximal inhibition (IC50) came out at 2.1 nM. Regarding `CCCOc1ccc(C2CCN(c3c(C#N)c(=O)n(C)c4ccccc34)CC2)cc1` [Example 42, 1-methyl-2-oxo-4-[4-(4-propoxyphenyl)piperidin-1-yl]-1,2-dihydroquinoline-3-carbonitrile], the IC50 was determined as 11 nM. The result for `Cc1ccc2oc(C3(C)CCN(c4c(C#N)c(=O)n(C)c5cc(O)c(C#N)cc45)CC3)nc2c1` [Example 426, 7-hydroxy-1-methyl-4-[4-methyl-4-(5-methyl-1,3-benzoxazol-2-yl)piperidin-1-yl]-2-oxo-1,2-dihydroquinoline-3,6-dicarbonitrile] reads 13 nM; that for `Cc1ccc2c(c1)c(N1CCCC(c3nc4ccccc4o3)CC1)c(C(N)=O)c(=O)n2C` (centres unmarked) [Example 205, 4-[4-(1,3-benzoxazol-2-yl)azepan-1-yl]-1,6-dimethyl-2-oxo-1,2-dihydroquinoline-3-carboxamide], 4.8 nM; that for `Cn1c(=O)c(C#N)c(N2CCC(c3cccc(N4CCOCC4)c3)CC2)c2ccccc21` [Example 63], 39 nM.

For the molecule `Cn1c(=O)c(C#N)c(N2CCC(c3ccccc3)CC2)c2ccccc21` [Example 57, 1-methyl-2-oxo-4-(4-phenylpiperidin-1-yl)-1,2-dihydroquinoline-3-carbonitrile], the IC50 stood at 22 nM. In the case of `Cc1ccc2oc(C3CCN(c4c(C(N)=O)c(=O)n(C)c5ccc(C#N)cc45)CC3)nc2c1` [Example 498, 6-cyano-1-methyl-4-[4-(5-methyl-1,3-benzoxazol-2-yl)piperidin-1-yl]-2-oxo-1,2-dihydroquinoline-3-carboxamide], the half-maximal inhibitory concentration (IC50) worked out at 3.1 nM.

In the case of `Cn1c(=O)c(C#N)c(N2CCC(c3nc(-c4cccnc4)no3)CC2)c2ccccc21` [Example 370, 1-methyl-2-oxo-4-{4-[3-(pyridin-3-yl)-1,2,4-oxadiazol-5-yl]piperidin-1-yl}-1,2-dihydroquinoline-3-carbonitrile], the half-inhibitory concentration (IC50) was 158 nM. Take `Cc1ccc2oc(C3(C)CCN(c4c(C#N)c(=O)n(C)c5ccc(O)cc45)CC3)nc2c1` [Example 242, 6-hydroxy-1-methyl-4-[4-methyl-4-(5-methyl-1,3-benzoxazol-2-yl)piperidin-1-yl]-2-oxo-1,2-dihydroquinoline-3-carbonitrile]: the IC50 was 2.7 nM. For `Cn1c(=O)c(C#N)c(N2CCC(c3nc4c(F)cccc4o3)CC2)c2ccccc21` [Example 26, 4-[4-(4-fluoro-1,3-benzoxazol-2-yl)piperidin-1-yl]-1-methyl-2-oxo-1,2-dihydroquinoline-3-carbonitrile], the concentration for half-maximal inhibition (IC50) stood at 10 nM.

`Cc1ccc2oc(C3CCN(c4c(C(N)=O)c(=O)n(C)c5ccc(C6(C(F)(F)F)CC6)cc45)CC3)nc2c1` [Example 507, 1-methyl-4-[4-(5-methyl-1,3-benzoxazol-2-yl)piperidin-1-yl]-2-oxo-6-[1-(trifluoromethyl)cyclopropyl]-1,2-dihydroquinoline-3-carboxamide]: the IC50 was 85 nM. With `Cc1ccc2nc(C3CCN(c4c(C#N)c(=O)n(C)c5ccc(C)cc45)CC3)oc2c1` [Example 184, 1,6-dimethyl-4-[4-(6-methyl-1,3-benzoxazol-2-yl)piperidin-1-yl]-2-oxo-1,2-dihydroquinoline-3-carbonitrile], the IC50 amounted to 1.5 nM. `Cn1c(=O)c(C#N)c(N2CCC(c3nc4cc(C(F)(F)F)ccc4s3)CC2)c2ccccc21` [Example 23, 1-methyl-2-oxo-4-{4-[5-(trifluoromethyl)-1,3-benzothiazol-2-yl]piperidin-1-yl}-1,2-dihydroquinoline-3-carbonitrile]: the concentration for half-maximal inhibition (IC50) worked out at 12 nM.

As for `Cn1c(=O)c(C(N)=O)c(N2CCC(c3nc4ccccc4o3)CC2)c2ccc(N3CCCC3=O)cc21` [Example 318, 4-[4-(1,3-benzoxazol-2-yl)piperidin-1-yl]-1-methyl-2-oxo-7-(2-oxopyrrolidin-1-yl)-1,2-dihydroquinoline-3-carboxamide], the IC50 was found to be 48 nM. Consider `Cc1ccc2oc(C3CCN(c4c(C#N)c(=O)n(C)c5cc(N(C)CC#N)ccc45)CC3)nc2c1` [Example 401, 7-[(cyanomethyl)(methyl)amino]-1-methyl-4-[4-(5-methyl-1,3-benzoxazol-2-yl)piperidin-1-yl]-2-oxo-1,2-dihydroquinoline-3-carbonitrile], for which the half-inhibitory concentration (IC50) was found to be 0.8 nM. For `Cc1cc(C2(C)CCN(c3c(C#N)c(=O)n(C)c4ccccc34)CC2)nc2ccccc12` [Example 364, 1-methyl-4-[4-methyl-4-(4-methylquinolin-2-yl)piperidin-1-yl]-2-oxo-1,2-dihydroquinoline-3-carbonitrile], the half-maximal inhibitory concentration (IC50) is 34 nM. Take `Cn1c(=O)c(C#N)c(N2CCC(c3nc4cc(N5CCCC5=O)ccc4o3)CC2)c2ccccc21` [Example 334, 1-methyl-2-oxo-4-{4-[5-(2-oxopyrrolidin-1-yl)-1,3-benzoxazol-2-yl]piperidin-1-yl}-1,2-dihydroquinoline-3-carbonitrile]: the IC50 was 100 nM. `Cn1c(=O)c(C#N)c(N2CCC(c3ccc(C(N)=O)cc3)CC2)c2ccccc21` [Example 330, 4-[1-(3-cyano-1-methyl-2-oxo-1,2-dihydroquinolin-4-yl)piperidin-4-yl]benzamide]: the IC50 was 217 nM. With `Cc1ccc2oc(C3CCN(c4c(C(N)=O)c(=O)n(C)c5cc(C)ccc45)CC3)nc2c1` [Example 313, 1,7-dimethyl-4-[4-(5-methyl-1,3-benzoxazol-2-yl)piperidin-1-yl]-2-oxo-1,2-dihydroquinoline-3-carboxamide], the concentration for half-maximal inhibition (IC50) stood at 1.5 nM.

Take `Cc1ccc2oc(C3(C)CCN(c4c(C#N)c(=O)n(C)c5cc(OC6CCC6)ccc45)CC3)nc2c1` [Example 247, 7-(cyclobutyloxy)-1-methyl-4-[4-methyl-4-(5-methyl-1,3-benzoxazol-2-yl)piperidin-1-yl]-2-oxo-1,2-dihydroquinoline-3-carbonitrile]: the IC50 was found to be 6.9 nM. For the molecule `Cc1ccc2oc(C3CCN(c4c(C#N)c(=O)n(C)c5cc(OC6COC6)ccc45)CC3)nc2c1` [Example 385, 1-methyl-4-[4-(5-methyl-1,3-benzoxazol-2-yl)piperidin-1-yl]-7-[(oxetan-3-yl)oxy]-2-oxo-1,2-dihydroquinoline-3-carbonitrile], the half-maximal inhibitory concentration (IC50) was 0.9 nM. In the case of `Cn1c(=O)c(C(N)=O)c(N2CCC(c3nc4ccccc4o3)CC2)c2ccc(F)cc21` [Example 305, 4-[4-(1,3-benzoxazol-2-yl)piperidin-1-yl]-7-fluoro-1-methyl-2-oxo-1,2-dihydroquinoline-3-carboxamide], the half-maximal inhibitory concentration (IC50) was found to be 4.5 nM. Turning to `COc1ccc(C2CCN(c3c(C#N)c(=O)n(C)c4c(F)cccc34)CC2)cc1` [Example 153, 8-fluoro-4-[4-(4-methoxyphenyl)piperidin-1-yl]-1-methyl-2-oxo-1,2-dihydroquinoline-3-carbonitrile], the IC50 stood at 45 nM. Take `Cc1ccc2oc(C3CCN(c4c(C(N)=O)c(=O)n(C)c5cc(Cl)ccc45)CC3)nc2c1` [Example 301, 7-chloro-1-methyl-4-[4-(5-methyl-1,3-benzoxazol-2-yl)piperidin-1-yl]-2-oxo-1,2-dihydroquinoline-3-carboxamide]: the IC50 is 1.4 nM. In the case of `Cc1ccc2oc(C3(C)CCN(c4c(C#N)c(=O)n(C)c5ccc(C6CC(F)(F)C6)cc45)CC3)nc2c1` [Example 209, 6-(3,3-difluorocyclobutyl)-1-methyl-4-[4-methyl-4-(5-methyl-1,3-benzoxazol-2-yl)piperidin-1-yl]-2-oxo-1,2-dihydroquinoline-3-carbonitrile] it was 26 nM; in that of `Cc1ccc2oc(C3CCN(c4c(C#N)c(=O)n(C)c5cc(NC6COC6)c(C)cc45)CC3)nc2c1` [Example 549, 1,6-dimethyl-4-[4-(5-methyl-1,3-benzoxazol-2-yl)piperidin-1-yl]-7-[(oxetan-3-yl)amino]-2-oxo-1,2-dihydroquinoline-3-carbonitrile], 0.6 nM. `Cn1c(=O)c(C(N)=O)c(N2CCC(c3ccc4c(c3)CC(O)C4)CC2)c2ccccc21` (centres unmarked) [Example 467, 4-[4-(2-hydroxy-2,3-dihydro-1H-inden-5-yl)piperidin-1-yl]-1-methyl-2-oxo-1,2-dihydroquinoline-3-carboxamide]: the IC50 amounted to 3.9 nM. Take `Cc1ccc2c(c1)c(N1CCCC(c3nc4ccccc4o3)CC1)c(C#N)c(=O)n2C` (centres unmarked) [Example 204, 4-[4-(1,3-benzoxazol-2-yl)azepan-1-yl]-1,6-dimethyl-2-oxo-1,2-dihydroquinoline-3-carbonitrile]: the IC50 came to 7 nM. For the molecule `Cc1ccc2c(c1)c(N1CCC(C)(c3nc4cc(C(C)C)ccc4o3)CC1)c(C#N)c(=O)n2C` [Example 189, 1,6-dimethyl-4-{4-methyl-4-[5-(propan-2-yl)-1,3-benzoxazol-2-yl]piperidin-1-yl}-2-oxo-1,2-dihydroquinoline-3-carbonitrile], the IC50 came to 15 nM. The result for `Cc1ccc2oc(C3(C)CCN(c4c(C#N)c(=O)n(C)c5ccc(Br)cc45)CC3)nc2c1` [Example 171, 6-bromo-1-methyl-4-[4-methyl-4-(5-methyl-1,3-benzoxazol-2-yl)piperidin-1-yl]-2-oxo-1,2-dihydroquinoline-3-carbonitrile] reads 1.5 nM; that for `Cc1ccc2oc(C3(C)CCN(c4c(C#N)c(=O)n(C)c5c(Cl)cccc45)CC3)nc2c1` [Example 231, 8-chloro-1-methyl-4-[4-methyl-4-(5-methyl-1,3-benzoxazol-2-yl)piperidin-1-yl]-2-oxo-1,2-dihydroquinoline-3-carbonitrile], 108 nM; that for `Cc1cccc2oc(C3CCN(c4c(C#N)c(=O)n(C)c5ccccc45)CC3)nc12` [Example 17, 1-methyl-4-[4-(4-methyl-1,3-benzoxazol-2-yl)piperidin-1-yl]-2-oxo-1,2-dihydroquinoline-3-carbonitrile], 12 nM.
